In US5801180A, “Quinazoline derivatives” (priority 1991, dated 1998):

What follows are compounds tested against T1, cGMP-PDE prepared from the swine aeorta (Sus scrofa, UniProt A0A287B475) (assay: Enzyme inhibiting action with the use of cGMP-PDE prepared from the swine aorta). Details: CaM-independent cGMP-PDE, 1 mM EGTA, 1 μM cGMP substrate, DMSO 4% or below.
T1 construct: The swine aeorta was sliced; from tissue; host or cells: swine aorta, 100000×g supernatant, DEAE-Toyopearl 650S fraction
Format: biochemical
Outline: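 CaM-independent cGMP-PDE isolated from pig aorta supernatant by DEAE anion-exchange chromatography. Activity measured with 1 μM cGMP substrate in presence of 1 mM EGTA, following the Thompson method. Compounds added from DMSO, final DMSO 4% or below.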
`CCOC(=O)/C=C/c1nc(NCc2ccc3c(c2)OCO3)c2cc(Cl)ccc2n1` [Example 114, (E)-2-(2-Ethoxycarbonylvinyl)-4-(3,4-methylenedioxybenzyl)amino-6-chloroquinazoline] was tested, and the IC50 was 3 nM. `N#Cc1ccc2nc(Cl)nc(NCc3ccc4c(c3)OCO4)c2c1` [Example 93, 2-Chloro-4-(3,4-methylenedioxybenzyl)amino-6-cyanoquinazoline] showed an IC50 of 32 nM. `OCC(O)COc1nc(NCc2ccc3c(c2)OCO3)c2cc(Cl)ccc2n1` (centres unmarked) [Example 178, 2-(2,3-Dihydroxypropyl)oxy-4-(3,4-methylenedioxybenzyl)amino-6-chloroquinazoline] showed an IC50 of 11 nM. `COc1ccc(CNc2ncnc3c(OC)c(OC)c(OC)cc23)cc1` [Example 7, 4-(4-Methoxybenzyl)amino-6,7,8-trimethoxyquinazoline] was tested, and the IC50 was 1000 nM. `Clc1ccc2nc(-n3ccnc3)nc(NCc3ccc4c(c3)OCO4)c2c1` [Example 192, 2-(1-Imidazolyl)-4-(3,4-methylenedioxybenzyl)amino-6-chloroquinazoline] gave an IC50 of 20 nM. In the case of `COc1ccc(CNc2nc(/C=C(\C)C(=O)O)nc3ccc(Cl)cc23)cc1Cl` [Example 125, (E)-2-(2-Carboxy-1-propenyl)-4-(3-chloro-4-methoxybenzyl)amino-6-chloroquinazoline], the IC50 is reported as 9 nM. For `COc1ccc(CNc2ncnc3ccc(SC)cc23)cc1F` [Example 51, 4-(3-Fluoro-4-methoxybenzyl)amino-6-methylthioquinazoline], the IC50 was 69 nM. `COc1ccc2nc(Cl)nc(NCc3ccc4c(c3)OCO4)c2c1` [Example 98, 2-Chloro-4-(3,4-methylenedioxybenzyl)amino-6-methoxyquinazoline] gave an IC50 of 62 nM.
